Reference: ChEMBL document CHEMBL1130089 (J Med Chem, 1997)
Active and inactive are the calls of the source. No cut-off for these calls is given here.

What was measured:
Estrogen receptor [1] = molecular target: T1, Estrogen receptor (Homo sapiens, UniProt Q92731+P03372); assay: Compound concentration required to induce transcriptional activation in MVLN cells equal to 50% of 0.1 nM estradiol response; assay type: functional, cell-based
Estrogen receptor [2] = molecular target: T1, Estrogen receptor; assay: Irreversible inhibition of [3H]estradiol binding to estrogen receptor; (-) indicates decrease in estradiol binding sites inactivated by the compound; assay type: protein assay
Estrogen receptor [3] = molecular target: T1, Estrogen receptor
Description: Relative affinity constant for cytosolic estrogen receptor

Estrogen receptor [4] = molecular target: T1, Estrogen receptor; assay: Agonist transcriptional activation in MVLN cells relative to 0.1 nM estradiol; assay type: functional, cell-based
Estrogen receptor [5] = molecular target: T1, Estrogen receptor; assay: Compound concentration required to induce transcriptional activation in MVLN cells comparable to 50% of 0.1 nM estradiol response; assay type: functional, cell-based
Estrogen receptor [6] = molecular target: T1, Estrogen receptor; remark: listed apart in the source

Row | IC50 (Estrogen receptor [1]) [nM] | Covalent binding (Estrogen receptor [2]) | RAC (Estrogen receptor [3]) | Activity (Estrogen receptor [4]) [%] | EC50 (Estrogen receptor [5]) [nM] | SMILES | Covalent binding (Estrogen receptor [6])
1 | 3 | inactive | 11 | – | – | C[C@]12C[C@H](CCCCBr)[C@@H]3c4ccc(O)cc4CC[C@H]3[C@@H]1CC[C@@H]2O | –
2 | – | – | 38.6 | 80 | < 10 | C=CCC[C@H]1C[C@]2(C)[C@@H](O)CC[C@H]2[C@@H]2CCc3cc(O)ccc3[C@@H]12 | –
3 | – | inactive | 0.38 | 90 | 110 | C[C@]12C[C@H](CCNC(=O)CBr)[C@@H]3c4ccc(O)cc4CC[C@H]3[C@@H]1CC[C@@H]2O | –
4 | – | inactive | 8.15 | 95 | 6 | C[C@]12C[C@H](CCOS(C)(=O)=O)[C@@H]3c4ccc(O)cc4CC[C@H]3[C@@H]1CC[C@@H]2O | –

Second part, the compound before the results:

Row | SMILES | IC50 (Estrogen receptor [1]) [nM] | Covalent binding (Estrogen receptor [2]) | RAC (Estrogen receptor [3]) | Activity (Estrogen receptor [4]) [%] | EC50 (Estrogen receptor [5]) [nM] | Covalent binding (Estrogen receptor [6])
5 | C[C@]12C[C@H](CCCCOS(C)(=O)=O)[C@@H]3c4ccc(O)cc4CC[C@H]3[C@@H]1CC[C@@H]2O | 6 | inactive | 36.8 | – | – | –
6 | Cc1ccc(S(=O)(=O)OCCCCCCCCCC[C@H]2C[C@]3(C)[C@@H](O)CC[C@H]3[C@@H]3CCc4cc(O)ccc4[C@@H]23)cc1 | 4 | – | 2.59 | – | – | < 10
7 | C[C@]12C[C@H](CCCCNC(=O)CBr)[C@@H]3c4ccc(O)cc4CC[C@H]3[C@@H]1CC[C@@H]2O | 320 | inactive | 1.64 | – | – | –
